Source: ChEMBL document CHEMBL4804286, “3-amino-4-(4-(4 (dimethylcarbamoyl) phenyl)-1,4-diazepan-1-yl) thieno [2,3-b] pyridine-2-carboxamide for use in cancer therapy and formulations comprising the same” (2020)
Where “and” joins values, the source holds several entries; their conditions need not be identical. Equal entries are not always repeated. Calls of active or inactive are those of the source. The rule behind the calls is not given here.

How the values were obtained:
[1] = target: TGF-beta receptor type-1 (Homo sapiens) (UniProt P36897); experiment: Inhibition of human TGFBR1 assessed as percent of control at 2000 nM by KINOMEscan assay relative to control; set-up: scale not given: the % may be the effect or the level left
[2] = target: Serine/threonine-protein kinase STK11 (Homo sapiens) (UniProt Q15831); experiment: Inhibition of human LKB1 assessed as percent of control at 2000 nM by KINOMEscan assay relative to control; set-up: scale not given: the % may be the effect or the level left
[3] = target: Mitogen-activated protein kinase kinase kinase kinase 4 (Homo sapiens) (UniProt O95819); experiment: Inhibition of human MAP4K4 assessed as percent of control at 2000 nM by KINOMEscan assay relative to control; set-up: scale not given: the % may be the effect or the level left
[4] = target: Serine/threonine-protein kinase MRCK beta (Homo sapiens) (UniProt Q9Y5S2); experiment: Inhibition of human MRCKB assessed as percent of control at 2000 nM by KINOMEscan assay relative to control; set-up: scale not given: the % may be the effect or the level left
[5] = target: Dual specificity mitogen-activated protein kinase kinase 6 (Homo sapiens) (UniProt P52564); experiment: Inhibition of human MEK6 assessed as percent of control at 2000 nM by KINOMEscan assay relative to control; set-up: scale not given: the % may be the effect or the level left
[6] = target: Serine/threonine-protein kinase Nek5 (Homo sapiens) (UniProt Q6P3R8); experiment: Inhibition of human NEK5 assessed as percent of control at 2000 nM by KINOMEscan assay relative to control; set-up: scale not given: the % may be the effect or the level left
[7] = target: Tyrosine-protein kinase Fes/Fps (Homo sapiens) (UniProt P07332); experiment: Inhibition of human FES assessed as percent of control at 2000 nM by KINOMEscan assay relative to control; set-up: scale not given: the % may be the effect or the level left
[8] = target: Serine/threonine-protein kinase BRSK1 (Homo sapiens) (UniProt Q8TDC3); experiment: Inhibition of human BRSK1 assessed as percent of control at 2000 nM by KINOMEscan assay relative to control; set-up: scale not given: the % may be the effect or the level left
[9] = tested on: Tyrosine-protein kinase ABL1 (Homo sapiens), P00519 [F317I]; experiment: Inhibition of phosphorylated human ABL1 F317I mutant assessed as percent of control at 2000 nM by KINOMEscan assay relative to control; set-up: scale not given: the % may be the effect or the level left
[10] = target: Tyrosine-protein kinase BTK (Homo sapiens) (UniProt Q06187); experiment: Inhibition of human BTK assessed as percent of control at 2000 nM by KINOMEscan assay relative to control; set-up: scale not given: the % may be the effect or the level left
[11] = target: Cyclin-dependent kinase 19 (Homo sapiens) (UniProt Q9BWU1); experiment: Inhibition of human CDK11 assessed as percent of control at 2000 nM by KINOMEscan assay relative to control; set-up: scale not given: the % may be the effect or the level left; conditions: INHIBITOR
[12] = target: Receptor tyrosine-protein kinase erbB-2 (Homo sapiens) (UniProt P04626); experiment: Inhibition of human ERBB2 assessed as percent of control at 2000 nM by KINOMEscan assay relative to control; set-up: scale not given: the % may be the effect or the level left
[13] = target: Serine/threonine-protein kinase Nek3 (Homo sapiens) (UniProt P51956); experiment: Inhibition of human NEK3 assessed as percent of control at 2000 nM by KINOMEscan assay relative to control; set-up: scale not given: the % may be the effect or the level left
[14] = tested on: Tyrosine-protein kinase ABL1 (Homo sapiens), P00519 [Q252H]; experiment: Inhibition of non-phosphorylated human ABL1 Q252H mutant assessed as percent of control at 2000 nM by KINOMEscan assay relative to control; set-up: scale not given: the % may be the effect or the level left
[15] = tested on: Tyrosine-protein kinase ABL1 (Homo sapiens), P00519 [M351T]; experiment: Inhibition of phosphorylated human ABL1 M351T mutant assessed as percent of control at 2000 nM by KINOMEscan assay relative to control; set-up: scale not given: the % may be the effect or the level left
[16] = target: Epidermal growth factor receptor (Homo sapiens) (UniProt P00533); experiment: Inhibition of human EGFR assessed as percent of control at 2000 nM by KINOMEscan assay relative to control; set-up: scale not given: the % may be the effect or the level left
[17] = target: Macrophage colony-stimulating factor 1 receptor (Homo sapiens) (UniProt P07333); experiment: Inhibition of human CSF1R assessed as percent of control at 2000 nM by KINOMEscan assay relative to control; set-up: scale not given: the % may be the effect or the level left
[18] = tested on: Receptor-type tyrosine-protein kinase FLT3 (Homo sapiens), P36888 [UNDEFINED MUTATION]; experiment: Inhibition of human FLT3 ITD mutant assessed as percent of control at 2000 nM by KINOMEscan assay relative to control; set-up: scale not given: the % may be the effect or the level left
[19] = target: Fibroblast growth factor receptor 4 (Homo sapiens) (UniProt P22455); experiment: Inhibition of human FGFR4 assessed as percent of control at 2000 nM by KINOMEscan assay relative to control; set-up: scale not given: the % may be the effect or the level left
[20] = target: Calcium/calmodulin-dependent protein kinase kinase 1 (Homo sapiens) (UniProt Q8N5S9); experiment: Inhibition of human CAMKK1 assessed as percent of control at 2000 nM by KINOMEscan assay relative to control; set-up: scale not given: the % may be the effect or the level left
[21] = target: Mitotic checkpoint serine/threonine-protein kinase BUB1 (Homo sapiens) (UniProt O43683); experiment: Inhibition of human BUB1 assessed as percent of control at 2000 nM by KINOMEscan assay relative to control; set-up: scale not given: the % may be the effect or the level left
[22] = tested on: Proto-oncogene tyrosine-protein kinase receptor Ret (Homo sapiens), P07949 [V804L]; experiment: Inhibition of human RET V804L mutant assessed as percent of control at 2000 nM by KINOMEscan assay relative to control; set-up: scale not given: the % may be the effect or the level left
[23] = target: Phosphatidylinositol 4-phosphate 5-kinase type-1 gamma (Homo sapiens) (UniProt O60331); experiment: Inhibition of human PIP5K1C assessed as percent of control at 2000 nM by KINOMEscan assay relative to control; set-up: scale not given: the % may be the effect or the level left
[24] = target: Cyclin-dependent kinase 2 (Homo sapiens) (UniProt P24941); experiment: Inhibition of human CDK2 assessed as percent of control at 2000 nM by KINOMEscan assay relative to control; set-up: scale not given: the % may be the effect or the level left
[25] = target: Mitogen-activated protein kinase kinase kinase 9 (Homo sapiens) (UniProt P80192); experiment: Inhibition of human MLK1 assessed as percent of control at 2000 nM by KINOMEscan assay relative to control; set-up: scale not given: the % may be the effect or the level left
[26] = target: cAMP-dependent protein kinase catalytic subunit alpha (Homo sapiens) (UniProt P17612); experiment: Inhibition of human PKAC-alpha assessed as percent of control at 2000 nM by KINOMEscan assay relative to control; set-up: scale not given: the % may be the effect or the level left
[27] = target: Tyrosine-protein kinase SYK (Homo sapiens) (UniProt P43405); experiment: Inhibition of human SYK assessed as percent of control at 2000 nM by KINOMEscan assay relative to control; set-up: scale not given: the % may be the effect or the level left
CWR22R = experiment: Antitumor activity against human 22Rv1 cells expressing AR-V7 xenografted in male nude mouse assessed as suppression of tumor growth at 50 mg/kg, administered twice a day for 40 days; format: functional, organism-based
[28] = target: Serine/threonine-protein kinase TAO2 (Homo sapiens) (UniProt Q9UL54); experiment: Inhibition of human TAOK2 assessed as percent of control at 2000 nM by KINOMEscan assay relative to control; set-up: scale not given: the % may be the effect or the level left
[29] = target: Casein kinase I isoform alpha (Homo sapiens) (UniProt P48729); conditions: INHIBITOR, dose 2000.0 nM
Description: Inhibition of human CSNK1A1 at 2000 nM by KINOMEscan assay

[30] = target: Hepatocyte growth factor receptor (Homo sapiens) (UniProt P08581); experiment: Inhibition of human MET assessed as percent of control at 2000 nM by KINOMEscan assay relative to control; set-up: scale not given: the % may be the effect or the level left
Sequence of Hepatocyte growth factor receptor (Homo sapiens) (P08581 whole entry): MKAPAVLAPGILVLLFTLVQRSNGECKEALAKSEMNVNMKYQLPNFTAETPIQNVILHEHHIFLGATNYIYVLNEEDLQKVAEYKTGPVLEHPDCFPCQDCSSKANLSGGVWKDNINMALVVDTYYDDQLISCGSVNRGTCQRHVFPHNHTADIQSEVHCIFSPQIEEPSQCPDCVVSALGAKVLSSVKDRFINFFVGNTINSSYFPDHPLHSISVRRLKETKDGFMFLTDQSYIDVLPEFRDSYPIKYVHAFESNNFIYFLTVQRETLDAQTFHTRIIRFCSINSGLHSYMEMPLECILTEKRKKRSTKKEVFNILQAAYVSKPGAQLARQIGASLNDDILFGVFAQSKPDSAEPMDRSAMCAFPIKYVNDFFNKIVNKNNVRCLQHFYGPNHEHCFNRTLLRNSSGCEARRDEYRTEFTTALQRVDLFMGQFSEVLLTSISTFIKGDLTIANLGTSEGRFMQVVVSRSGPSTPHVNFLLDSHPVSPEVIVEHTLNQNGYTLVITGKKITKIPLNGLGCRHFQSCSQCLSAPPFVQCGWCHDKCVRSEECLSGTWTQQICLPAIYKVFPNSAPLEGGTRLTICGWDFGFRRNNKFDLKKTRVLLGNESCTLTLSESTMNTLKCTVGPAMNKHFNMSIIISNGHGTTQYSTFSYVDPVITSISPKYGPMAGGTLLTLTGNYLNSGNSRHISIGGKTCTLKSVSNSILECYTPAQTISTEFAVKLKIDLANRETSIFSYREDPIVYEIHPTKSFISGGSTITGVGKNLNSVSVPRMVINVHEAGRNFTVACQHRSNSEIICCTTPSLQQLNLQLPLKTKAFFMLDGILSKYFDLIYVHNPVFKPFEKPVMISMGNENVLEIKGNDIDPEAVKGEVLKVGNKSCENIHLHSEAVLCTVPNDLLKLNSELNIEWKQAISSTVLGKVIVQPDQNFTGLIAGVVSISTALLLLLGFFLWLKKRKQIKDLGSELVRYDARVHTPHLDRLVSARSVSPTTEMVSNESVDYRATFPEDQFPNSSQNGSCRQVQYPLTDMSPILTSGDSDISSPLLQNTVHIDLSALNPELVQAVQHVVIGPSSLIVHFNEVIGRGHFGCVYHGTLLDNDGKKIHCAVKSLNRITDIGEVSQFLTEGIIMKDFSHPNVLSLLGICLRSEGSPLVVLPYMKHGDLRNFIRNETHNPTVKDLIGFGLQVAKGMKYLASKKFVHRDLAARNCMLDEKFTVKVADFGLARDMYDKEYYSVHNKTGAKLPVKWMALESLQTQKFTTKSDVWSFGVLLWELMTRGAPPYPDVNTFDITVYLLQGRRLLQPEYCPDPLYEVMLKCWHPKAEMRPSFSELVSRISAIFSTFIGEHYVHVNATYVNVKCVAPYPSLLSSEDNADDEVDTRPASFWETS

Sequence of Epidermal growth factor receptor (Homo sapiens) (P00533 whole entry): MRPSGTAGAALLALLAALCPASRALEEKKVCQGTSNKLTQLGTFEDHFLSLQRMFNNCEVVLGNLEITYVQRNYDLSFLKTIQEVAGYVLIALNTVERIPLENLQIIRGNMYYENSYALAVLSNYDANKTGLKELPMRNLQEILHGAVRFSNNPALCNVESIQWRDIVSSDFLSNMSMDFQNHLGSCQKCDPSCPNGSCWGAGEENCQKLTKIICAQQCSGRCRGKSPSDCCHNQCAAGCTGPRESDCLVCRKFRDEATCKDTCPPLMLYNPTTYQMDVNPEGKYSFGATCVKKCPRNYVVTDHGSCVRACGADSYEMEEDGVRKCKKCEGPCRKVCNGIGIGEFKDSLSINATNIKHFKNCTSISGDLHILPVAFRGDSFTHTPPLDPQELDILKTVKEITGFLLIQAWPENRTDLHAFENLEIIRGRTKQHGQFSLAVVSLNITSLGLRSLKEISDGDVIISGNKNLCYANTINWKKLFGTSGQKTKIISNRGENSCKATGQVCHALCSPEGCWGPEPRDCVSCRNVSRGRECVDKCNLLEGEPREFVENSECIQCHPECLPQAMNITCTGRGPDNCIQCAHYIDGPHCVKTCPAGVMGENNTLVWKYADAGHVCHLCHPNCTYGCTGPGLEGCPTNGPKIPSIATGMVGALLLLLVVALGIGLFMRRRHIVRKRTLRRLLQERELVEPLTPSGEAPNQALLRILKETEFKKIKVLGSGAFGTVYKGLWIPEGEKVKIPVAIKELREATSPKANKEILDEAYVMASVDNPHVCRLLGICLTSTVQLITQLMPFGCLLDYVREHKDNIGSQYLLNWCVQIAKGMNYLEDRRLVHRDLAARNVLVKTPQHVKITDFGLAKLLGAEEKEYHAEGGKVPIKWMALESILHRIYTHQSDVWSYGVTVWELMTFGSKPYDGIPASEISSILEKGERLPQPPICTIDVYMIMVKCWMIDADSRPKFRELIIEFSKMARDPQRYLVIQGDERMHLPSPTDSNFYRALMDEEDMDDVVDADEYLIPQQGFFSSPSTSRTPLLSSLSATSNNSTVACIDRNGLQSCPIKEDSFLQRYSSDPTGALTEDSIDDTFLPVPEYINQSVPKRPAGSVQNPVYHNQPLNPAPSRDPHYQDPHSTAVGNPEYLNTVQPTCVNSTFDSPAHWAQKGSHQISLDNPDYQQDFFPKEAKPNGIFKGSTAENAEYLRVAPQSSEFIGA
Sequence of Serine/threonine-protein kinase Nek5 (Homo sapiens) (Q6P3R8 whole entry): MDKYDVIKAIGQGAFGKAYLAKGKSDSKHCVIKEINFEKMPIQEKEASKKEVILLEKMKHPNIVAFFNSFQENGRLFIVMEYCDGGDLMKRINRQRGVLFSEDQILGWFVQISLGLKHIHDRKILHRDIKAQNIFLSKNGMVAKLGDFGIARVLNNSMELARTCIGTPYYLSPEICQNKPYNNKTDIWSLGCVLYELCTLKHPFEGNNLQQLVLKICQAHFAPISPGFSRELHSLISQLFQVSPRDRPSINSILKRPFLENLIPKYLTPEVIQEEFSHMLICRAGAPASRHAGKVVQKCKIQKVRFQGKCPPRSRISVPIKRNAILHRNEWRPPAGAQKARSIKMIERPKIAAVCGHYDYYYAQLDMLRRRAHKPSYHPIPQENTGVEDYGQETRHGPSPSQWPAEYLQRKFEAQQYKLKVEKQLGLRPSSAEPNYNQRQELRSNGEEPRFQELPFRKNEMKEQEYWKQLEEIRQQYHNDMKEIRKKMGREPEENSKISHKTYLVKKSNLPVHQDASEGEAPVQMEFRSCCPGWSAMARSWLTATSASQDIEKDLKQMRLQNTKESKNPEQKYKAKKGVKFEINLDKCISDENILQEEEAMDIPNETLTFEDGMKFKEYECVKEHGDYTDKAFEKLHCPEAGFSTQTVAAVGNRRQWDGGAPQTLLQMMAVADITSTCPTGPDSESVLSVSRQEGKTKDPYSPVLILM
Sequence of TGF-beta receptor type-1 (Homo sapiens) (P36897 whole entry): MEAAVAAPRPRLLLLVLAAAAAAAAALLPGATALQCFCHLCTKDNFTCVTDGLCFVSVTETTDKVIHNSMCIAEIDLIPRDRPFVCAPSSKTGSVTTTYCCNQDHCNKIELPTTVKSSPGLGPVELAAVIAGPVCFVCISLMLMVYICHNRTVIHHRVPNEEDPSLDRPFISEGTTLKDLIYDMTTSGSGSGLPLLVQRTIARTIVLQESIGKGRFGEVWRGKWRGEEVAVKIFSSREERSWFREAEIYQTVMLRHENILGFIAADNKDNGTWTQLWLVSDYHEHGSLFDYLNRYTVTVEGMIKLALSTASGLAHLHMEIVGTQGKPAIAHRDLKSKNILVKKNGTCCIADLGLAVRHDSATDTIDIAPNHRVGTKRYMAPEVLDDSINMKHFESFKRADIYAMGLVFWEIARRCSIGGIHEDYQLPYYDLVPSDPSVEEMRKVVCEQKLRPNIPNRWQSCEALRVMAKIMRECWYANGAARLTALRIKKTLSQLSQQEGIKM
Sequence of Calcium/calmodulin-dependent protein kinase kinase 1 (Homo sapiens) (Q8N5S9 whole entry, looked up): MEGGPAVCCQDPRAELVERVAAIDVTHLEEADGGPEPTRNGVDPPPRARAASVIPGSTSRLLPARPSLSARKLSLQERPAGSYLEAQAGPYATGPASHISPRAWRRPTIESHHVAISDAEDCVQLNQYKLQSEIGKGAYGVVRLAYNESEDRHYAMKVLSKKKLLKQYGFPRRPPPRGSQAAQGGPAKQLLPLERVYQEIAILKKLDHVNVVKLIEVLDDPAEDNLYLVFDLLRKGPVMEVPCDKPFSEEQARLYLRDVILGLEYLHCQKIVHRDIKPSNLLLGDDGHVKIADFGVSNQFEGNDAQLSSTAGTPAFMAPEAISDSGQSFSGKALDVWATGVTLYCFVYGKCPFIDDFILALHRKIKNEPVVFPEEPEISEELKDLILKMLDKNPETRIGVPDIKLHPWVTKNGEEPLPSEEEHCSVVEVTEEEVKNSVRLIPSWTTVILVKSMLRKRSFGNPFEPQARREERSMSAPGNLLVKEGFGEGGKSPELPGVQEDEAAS
Sequence of Phosphatidylinositol 4-phosphate 5-kinase type-1 gamma (Homo sapiens) (O60331 whole entry): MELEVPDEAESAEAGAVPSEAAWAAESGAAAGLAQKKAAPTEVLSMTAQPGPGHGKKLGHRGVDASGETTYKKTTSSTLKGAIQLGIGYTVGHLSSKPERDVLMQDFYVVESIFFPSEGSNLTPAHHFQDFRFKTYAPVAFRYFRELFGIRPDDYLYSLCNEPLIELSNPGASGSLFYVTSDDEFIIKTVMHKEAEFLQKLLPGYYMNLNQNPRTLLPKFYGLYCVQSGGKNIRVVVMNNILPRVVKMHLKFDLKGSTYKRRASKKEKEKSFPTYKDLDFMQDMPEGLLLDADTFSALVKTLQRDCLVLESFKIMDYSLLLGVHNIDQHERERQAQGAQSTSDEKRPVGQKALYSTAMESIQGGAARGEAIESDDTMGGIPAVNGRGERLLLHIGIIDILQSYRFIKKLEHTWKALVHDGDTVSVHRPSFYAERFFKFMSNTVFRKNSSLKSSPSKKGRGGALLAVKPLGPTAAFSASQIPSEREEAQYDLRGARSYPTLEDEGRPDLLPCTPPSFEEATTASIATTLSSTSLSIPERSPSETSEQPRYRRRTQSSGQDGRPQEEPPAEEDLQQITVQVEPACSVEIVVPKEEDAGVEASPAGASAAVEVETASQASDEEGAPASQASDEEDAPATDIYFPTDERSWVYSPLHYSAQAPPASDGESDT

`CN(C)C(=O)c1ccc(N2CCCN(c3ccnc4sc(C(N)=O)c(N)c34)CC2)cc1` was tested, and the Activity [1] was 100%, the Activity [2] was 100% and 87% and the Activity [3] was 100% and 93%. The Activity [4] was 96% and 100%, the Activity [5] was 100% and 96% and the Activity [6] was 94% and 100%. For the same compound, the Activity [7] was 100%, the Activity [8] was 86% and 97% and the Activity [9] was 88% and 84%. The Activity [10] was 81% and 77%, the Activity [11] was 13% and 0% and the Activity [12] was 100% and 89%. For the same compound, the Activity [13] was 100% and 76%, the Activity [14] was 94% and 75% and the Activity [15] was 77%. The Activity ([15]; INHIBITOR) was 10%, the Activity [16] was 100% and 87% and the Activity [17] was 98% and 95%. The Activity [18] was 82% and 72%, the Activity [19] was 100% and 96% and the Activity [20] was 96% and 100%. The Activity [21] was 88% and 80%, the Activity [22] was 100% and the Activity [23] was 64%. The Activity ([23]; INHIBITOR) was 25%, the Activity [24] was 100% and 99% and the Activity [25] was 95% and 92%. For the same compound, the Activity [26] was 95% and 100%, the Activity [27] was 95% and 100% and the Activity (CWR22R) was “Active”. The Activity [28] was 92% and 93%, the inhibition [29] was greater than 65% and the Activity [30] was 99% and 92%.
